Data as given in patent US10000489B2, “Compounds αvβ6 integrin antagonists” (GlaxoSmithKline Intellectual Property Development Limited, priority 2014, dated 2018).
Counter-ions that a name gives are not always drawn. Like-named read-outs stand apart in the source and are kept apart here.

Assays:
Format in all cases: cell-based
αvβ8 = biological target: T1, αvβ8 (Homo sapiens, UniProt P06756+P26012); assay: Cell adhesion assay, K562-αvβ8 (LAP-b1); settings: read-out: αvβ8 pIC50 (converted)
T1 construct: expressed in transfected cells; host or cells: K562
Description: (§1) The following cell lines were used, with ligands in brackets: K562-αvβ3 (LAP-b1), K562-αvβ5 (Vitronectin), K562-αvβ6 (LAP-b1), K562-αvβ8 (LAP-b1), A549-αvβ1 (LAP-b1). The divalent cation used to facilitate adhesion was 2 mM MgCl2. Adhesion was quantified by cell labelling with the fluorescent dye BCECF-AM (Life Technologies), where cell suspensions at 3×10^6 cells/mL were incubated with 0.33 uL/mL of 30 mM BCECF-AM at 37° C. for 10 minutes, then 50 μL/well were dispensed into the 96-well assay plate. At the assay conclusion cells that adhered were lysed using 50 μL/well of 0.5% Triton X-100 in H2O to release fluorescence. Fluorescence intensity was detected using an Envision® plate reader (Perkin Elmer). For active antagonists in the assay, data were fitted to a 4 parameter logistic equation for IC50 determinations.
Figures quoted are Mean pIC50 values.

αvβ1 = biological target: T2, αvβ1 (Homo sapiens, UniProt P05556+P06756); assay: Cell adhesion assay, A549-αvβ1 (LAP-b1)
T2 construct: host or cells: A549
Description: as §1
Figures quoted are Mean pIC50 values.

αvβ5 = biological target: T3, αvβ5 (Homo sapiens, UniProt P06756+P18084); assay: Cell adhesion assay, K562-αvβ5 (Vitronectin); settings: read-out: αvβ5 pIC50 (converted)
T3 construct: expressed in transfected cells; host or cells: K562
Description: as §1
Figures quoted are Mean pIC50 values.

αvβ3 = biological target: T4, αvβ3 (Homo sapiens, UniProt P05106+P06756); assay: Cell adhesion assay, K562-αvβ3 (LAP-b1); settings: read-out: αvβ3 pIC50 (converted)
T4 construct: expressed in transfected cells; host or cells: K562
Description: as §1
Figures quoted are Mean pIC50 values.

αvβ6 = biological target: T5, αvβ6 (Homo sapiens, UniProt P06756+P18564); assay: Cell adhesion assay, K562-αvβ6 (LAP-b1); settings: read-out: αvβ6 pIC50 (converted)
T5 construct: expressed in transfected cells; host or cells: K562
Description: as §1
Figures quoted are Mean pIC50 values.

[1] = cell adhesion, A549-αvβ1 cells, ligand LAP-b1, 2 mM MgCl2, mean pIC50

T2 sequence (P06756 31-889 limits assumed): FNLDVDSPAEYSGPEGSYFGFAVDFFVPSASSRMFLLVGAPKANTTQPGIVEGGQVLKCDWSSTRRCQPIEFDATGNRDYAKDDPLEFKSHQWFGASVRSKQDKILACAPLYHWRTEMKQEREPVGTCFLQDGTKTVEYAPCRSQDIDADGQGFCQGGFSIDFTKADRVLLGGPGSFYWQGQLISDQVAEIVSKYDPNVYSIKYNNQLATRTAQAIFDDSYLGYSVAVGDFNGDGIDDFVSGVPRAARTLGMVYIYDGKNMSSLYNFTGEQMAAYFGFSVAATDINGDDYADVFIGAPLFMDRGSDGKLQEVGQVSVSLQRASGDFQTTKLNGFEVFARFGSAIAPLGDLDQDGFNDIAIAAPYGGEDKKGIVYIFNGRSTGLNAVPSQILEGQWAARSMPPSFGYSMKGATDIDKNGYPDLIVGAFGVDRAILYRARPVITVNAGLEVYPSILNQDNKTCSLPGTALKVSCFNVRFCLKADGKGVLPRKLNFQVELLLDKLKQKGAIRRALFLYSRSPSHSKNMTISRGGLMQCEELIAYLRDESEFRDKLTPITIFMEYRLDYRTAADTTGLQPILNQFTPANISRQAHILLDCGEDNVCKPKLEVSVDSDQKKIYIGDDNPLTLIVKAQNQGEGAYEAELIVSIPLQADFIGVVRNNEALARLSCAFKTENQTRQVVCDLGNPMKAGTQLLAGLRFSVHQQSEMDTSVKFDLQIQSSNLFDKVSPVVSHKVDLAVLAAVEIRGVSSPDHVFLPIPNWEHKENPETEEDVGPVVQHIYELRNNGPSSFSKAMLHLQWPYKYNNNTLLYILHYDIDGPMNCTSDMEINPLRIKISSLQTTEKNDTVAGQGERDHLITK
T2 sequence (P06756 891-1048 partner limits assumed): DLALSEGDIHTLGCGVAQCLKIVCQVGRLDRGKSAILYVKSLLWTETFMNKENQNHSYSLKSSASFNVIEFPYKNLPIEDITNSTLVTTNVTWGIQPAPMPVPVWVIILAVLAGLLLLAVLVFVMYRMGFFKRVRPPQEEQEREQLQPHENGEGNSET
T2 sequence (P05556 21-798): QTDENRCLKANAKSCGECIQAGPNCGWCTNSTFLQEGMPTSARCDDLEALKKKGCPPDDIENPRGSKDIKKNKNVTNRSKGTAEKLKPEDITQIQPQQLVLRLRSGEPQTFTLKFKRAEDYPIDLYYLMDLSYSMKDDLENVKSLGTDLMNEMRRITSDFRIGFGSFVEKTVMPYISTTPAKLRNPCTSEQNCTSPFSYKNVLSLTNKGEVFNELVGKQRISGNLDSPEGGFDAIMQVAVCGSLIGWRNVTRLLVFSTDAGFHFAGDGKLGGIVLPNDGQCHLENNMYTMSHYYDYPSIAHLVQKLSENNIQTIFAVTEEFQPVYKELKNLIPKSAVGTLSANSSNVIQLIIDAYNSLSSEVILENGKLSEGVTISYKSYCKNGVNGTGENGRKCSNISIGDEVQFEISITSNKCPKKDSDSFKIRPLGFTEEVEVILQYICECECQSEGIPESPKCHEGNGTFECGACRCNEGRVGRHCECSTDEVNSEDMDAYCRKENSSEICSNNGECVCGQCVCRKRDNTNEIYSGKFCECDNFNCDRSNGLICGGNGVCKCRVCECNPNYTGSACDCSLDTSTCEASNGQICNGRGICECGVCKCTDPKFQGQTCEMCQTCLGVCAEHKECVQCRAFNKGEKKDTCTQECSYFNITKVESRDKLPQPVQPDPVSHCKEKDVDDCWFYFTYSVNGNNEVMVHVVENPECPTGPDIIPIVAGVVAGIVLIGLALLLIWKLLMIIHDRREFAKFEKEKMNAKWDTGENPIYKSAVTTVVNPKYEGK
T1 sequence (P06756 31-889 limits assumed): as the sequence (P06756 31-889 limits assumed) above
T1 sequence (P06756 891-1048 partner limits assumed): as the sequence (P06756 891-1048 partner limits assumed) above
T1 sequence (P26012 43-769): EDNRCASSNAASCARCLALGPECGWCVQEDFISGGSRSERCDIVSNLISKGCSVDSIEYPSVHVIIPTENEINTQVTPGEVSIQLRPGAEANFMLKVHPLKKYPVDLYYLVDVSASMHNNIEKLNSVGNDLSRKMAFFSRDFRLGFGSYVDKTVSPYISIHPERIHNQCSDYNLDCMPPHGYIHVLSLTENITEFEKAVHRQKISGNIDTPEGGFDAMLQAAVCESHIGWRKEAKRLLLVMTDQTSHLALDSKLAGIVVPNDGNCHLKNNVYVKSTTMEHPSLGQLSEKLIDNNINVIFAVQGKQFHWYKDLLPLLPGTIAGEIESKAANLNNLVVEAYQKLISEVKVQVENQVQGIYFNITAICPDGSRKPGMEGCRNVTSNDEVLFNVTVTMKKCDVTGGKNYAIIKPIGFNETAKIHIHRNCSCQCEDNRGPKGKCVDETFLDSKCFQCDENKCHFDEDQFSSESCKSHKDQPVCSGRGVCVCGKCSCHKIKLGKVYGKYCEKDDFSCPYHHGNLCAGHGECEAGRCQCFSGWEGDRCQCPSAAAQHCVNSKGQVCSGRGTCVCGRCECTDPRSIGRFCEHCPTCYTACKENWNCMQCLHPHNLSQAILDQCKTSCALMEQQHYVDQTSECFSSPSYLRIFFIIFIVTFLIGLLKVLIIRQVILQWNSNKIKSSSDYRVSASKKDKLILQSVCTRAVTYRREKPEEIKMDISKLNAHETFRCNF
T4 sequence (P06756 31-889 limits assumed): as the sequence (P06756 31-889 limits assumed) above
T4 sequence (P06756 891-1048 partner limits assumed): as the sequence (P06756 891-1048 partner limits assumed) above
T4 sequence (P05106 27-788): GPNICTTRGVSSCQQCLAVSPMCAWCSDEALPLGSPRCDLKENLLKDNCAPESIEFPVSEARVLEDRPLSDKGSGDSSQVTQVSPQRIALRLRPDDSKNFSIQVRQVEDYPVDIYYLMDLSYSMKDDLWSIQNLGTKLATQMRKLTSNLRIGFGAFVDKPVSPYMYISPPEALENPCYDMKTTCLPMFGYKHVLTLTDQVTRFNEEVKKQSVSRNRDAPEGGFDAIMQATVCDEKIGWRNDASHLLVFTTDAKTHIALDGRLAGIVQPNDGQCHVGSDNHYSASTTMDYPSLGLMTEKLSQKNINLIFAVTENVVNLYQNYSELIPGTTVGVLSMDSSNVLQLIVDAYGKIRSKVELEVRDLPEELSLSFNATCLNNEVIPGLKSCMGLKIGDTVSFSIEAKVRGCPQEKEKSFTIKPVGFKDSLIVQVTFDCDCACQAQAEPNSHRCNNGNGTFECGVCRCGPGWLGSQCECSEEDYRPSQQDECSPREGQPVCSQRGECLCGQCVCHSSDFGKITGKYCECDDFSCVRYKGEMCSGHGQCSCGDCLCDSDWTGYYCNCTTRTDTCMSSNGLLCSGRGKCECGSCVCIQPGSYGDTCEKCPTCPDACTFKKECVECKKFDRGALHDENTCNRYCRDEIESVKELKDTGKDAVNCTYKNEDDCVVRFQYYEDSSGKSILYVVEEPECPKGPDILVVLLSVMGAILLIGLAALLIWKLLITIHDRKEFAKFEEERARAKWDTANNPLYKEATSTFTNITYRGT
T3 sequence (P06756 31-889 limits assumed): as the sequence (P06756 31-889 limits assumed) above
T3 sequence (P06756 891-1048 partner limits assumed): as the sequence (P06756 891-1048 partner limits assumed) above
T3 sequence (P18084 24-799): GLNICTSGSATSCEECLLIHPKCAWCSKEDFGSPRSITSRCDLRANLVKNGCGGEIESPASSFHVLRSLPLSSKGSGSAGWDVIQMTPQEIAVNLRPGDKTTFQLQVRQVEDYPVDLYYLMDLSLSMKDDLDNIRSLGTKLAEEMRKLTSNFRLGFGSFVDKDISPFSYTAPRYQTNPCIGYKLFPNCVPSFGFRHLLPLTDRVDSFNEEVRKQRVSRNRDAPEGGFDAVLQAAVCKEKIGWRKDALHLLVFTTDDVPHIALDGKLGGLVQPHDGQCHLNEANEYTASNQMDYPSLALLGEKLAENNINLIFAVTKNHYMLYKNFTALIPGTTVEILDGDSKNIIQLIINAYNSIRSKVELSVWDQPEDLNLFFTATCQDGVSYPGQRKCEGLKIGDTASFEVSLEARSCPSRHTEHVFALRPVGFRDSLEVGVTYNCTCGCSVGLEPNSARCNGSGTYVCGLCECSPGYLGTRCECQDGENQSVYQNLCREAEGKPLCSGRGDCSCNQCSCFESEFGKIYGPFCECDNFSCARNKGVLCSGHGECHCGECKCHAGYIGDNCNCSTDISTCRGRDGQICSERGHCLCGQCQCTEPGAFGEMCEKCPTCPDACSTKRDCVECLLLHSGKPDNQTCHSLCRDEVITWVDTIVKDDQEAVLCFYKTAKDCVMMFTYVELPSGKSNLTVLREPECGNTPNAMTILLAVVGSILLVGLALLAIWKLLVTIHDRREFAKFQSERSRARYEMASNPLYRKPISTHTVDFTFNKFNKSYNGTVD

SMILES | IC50 (αvβ8) [nM] | IC50 (αvβ1; [1]) [nM] | IC50 (αvβ5) [nM] | IC50 (αvβ3) [nM] | IC50 (αvβ1; read-out: αvβ1 pIC50 (converted)) [nM] | IC50 (αvβ6) [nM]
O=C(O)C[C@H](CN1CC[C@](F)(CCc2ccc3c(n2)NCCC3)C1)c1cccc(N2CCOCC2)c1 [Example 2, (S)-4-(R)-(3-Fluoro-3-(2-(5,6,7,8-tetrahydro-1,8-naphthyridin-2-yl)ethyl)pyrrolidin-1-yl)-3-(3-morpholinophenyl)butanoic acid] | 25.1 | – | – | – | – | –
O=C(O)C[C@H](CN1CC[C@@](F)(CCc2ccc3c(n2)NCCC3)C1)c1cc(N2CCOCC2)ccc1F [Example 5, (S)-4-((S)-3-Fluoro-3-(2-(5,6,7,8-tetrahydro-1,8-naphthyridin-2-yl)ethyl)pyrrolidin-1-yl)-3-(2-fluoro-5-morpholinophenyl)butanoic acid] | 25.1 | – | 316 | 794 | 158 | 15.8
O=C(O)CC(CN1CC[C@](F)(CCc2ccc3c(n2)NCCC3)C1)c1cc(N2CCOCC2)ccc1F (stereo partly drawn) [Example 9, 4-((R)-3-Fluoro-3-(2-(5,6,7,8-tetrahydro-1,8-naphthyridin-2-yl)ethyl)pyrrolidin-1-yl)-3-(2-fluoro-5-morpholinophenyl)butanoic acid] | 79.4 | – | 316 | 7940 | – | 25.1

More lines, now with the values ahead:

IC50 (αvβ8) [nM] | IC50 (αvβ1; [1]) [nM] | IC50 (αvβ5) [nM] | IC50 (αvβ3) [nM] | IC50 (αvβ1; read-out: αvβ1 pIC50 (converted)) [nM] | IC50 (αvβ6) [nM] | SMILES
– | 79.4 | – | – | – | – | O=C(O)C[C@H](CN1CC[C@@](F)(CCc2ccc3c(n2)NCCC3)C1)c1cccc(N2CCOCC2)c1 [Example 3, (S)-4-(S)-(3-Fluoro-3-(2-(5,6,7,8-tetrahydro-1,8-naphthyridin-2-yl)ethyl)pyrrolidin-1-yl)-3-morpholinophenyl)butanoic acid maleate salt]
– | 100 | – | – | – | – | O=C(O)C[C@H](CN1CC[C@@](F)(CCc2ccc3c(n2)NCCC3)C1)c1cccc(N2CCOCC2)c1 [Example 4, (S)-4-(S)-(3-Fluoro-3-(2-(5,6,7,8-tetrahydro-1,8-naphthyridin-2-yl)ethyl)pyrrolidin-1-yl)-3-(3-morpholinophenyl)butanoic acid fumarate salt]
